This is an account of results in patent US7687609B2, “Galectin-glycosaminoglycan complex and method for controlling galectin activity” (National Institute of Advanced Industrial Science and …, priority 2006, dated 2010).

Entries after “also recorded” stand apart in the source; their conditions may differ.

Holding throughout (experiment): FAC affinity test on galectin-immobilized column
Common to all, as to assay type: binding

One experiment deals with T1, Galectin-3 (Homo sapiens, UniProt P17931).
T1 construct: made in house
The conditions noted are these: for V − V0 Value: pyridyl-aminated carbohydrate, galectin-3 immobilized 0.5 mg/ml, less than 5 μl = below interaction detection limit; for binding to galectin-3 (in words): text statement on the FAC results. The procedure: (§1) Various galectin molecules-immobilized columns were prepared by the method described by Nakamura S, Yagi F, Totani K, Ito γ and Hirabayashi J in FEBS J., 272, 2784-2799 (2005), using NHS Sepharose (manufactured by Amersham Bioscience) as the carrier for immobilizing galectin molecules and in accordance with the instructions attached thereto (put in parentheses is immobilization concentration, mg galectin/ml carrier).
(§2) Each galectin molecule was immobilized onto the carrier at the following concentration; galectin-1 (0.8 mg/ml), galectin-3 (0.5 mg/ml), galectin-8N (3.6 mg/ml), galectin-8C (4.0 mg/ml), galectin-9N (3.6 mg/ml), galectin-9C (3.0 mg/ml). The carrier on which each galectin was immobilized was charged into a stainless steel miniature column (2 mm in inner diameter, 10 mm in length; manufactured by Shimadzu Corp.).
(§3) A high performance liquid chromatography (HPLC) system was equipped with a galectin molecule-immobilized column, and the test was carried out by the method described in Nakamura S, Yagi F, Totani K, Ito γ and Hirabayashi J in FEBS J., 272, 2784-2799 (2005).
(§4) As the negative control sample, pyridyl-aminated N-acetylglucosamine (PA-GlcNAc, manufactured by Takara Bio, pyridyl-aminated glycosaminoglycan-oligosaccharide sample control) or pyridyl-aminated pullulan (prepared by carrying out pyridylamination of standard pullulan manufactured by Shodex, pyridyl-aminated glycosaminoglycan polysaccharide sample control) was used, and a V−V0 value was calculated from their eluate volume (V0 value) measured by fluorescence detection and the eluate volume (V value) of the sample, namely pyridyl-aminated glycosaminoglycan carbohydrate, and this was used as the index of interaction strength (Protein, Nucleic Acid and Enzyme, 48(8), 1206-1212 (2003)).
(§5) V−V0 values of pyridyl-aminated glycosaminoglycans (HA, CH, DN, NAH, CSA, CSB, CSC, CSD, CSE, KS-I and KS-II) were calculated based on PA-GlcNAc, and V−V0 values of pyridyl-aminated glycosaminoglycan-oligosaccharides (G2K1, G1L1, G4L4, L2L2, L2L4, L4L4, SL2L4 and CH3 to CH12) based on pyridyl-aminated pullulan, respectively.
(§6) In this connection, when the calculated value of the V−V0 value was less than 5 μl, it was regarded as less than the interaction detection limit in this example.

Another experiment has as its target T2, Galectin-1 (Homo sapiens, UniProt P09382).
T2 construct: made in house
Conditions: for V − V0 Value: pyridyl-aminated carbohydrate, galectin-1 immobilized 0.8 mg/ml, less than 5 μl = below interaction detection limit. The procedure: as §1, §2, §3, §4, §5, §6

The target of another experiment is T3, Galectin-9N (Homo sapiens, UniProt O00182).
T3 construct: N and C respectively represent N-terminal side carbohydrate-recognition domain and C-terminal side carbohydrate-recognition domain; made in house
Conditions: for V − V0 Value: pyridyl-aminated carbohydrate, galectin-9N immobilized 3.6 mg/ml, less than 5 μl = below interaction detection limit; for binding to galectin-9N (in words): text statement on the FAC results. How it is done:
as §1, §2, §3, §4, §5, §6

The target in the next experiment is T4, Galectin-9C (Homo sapiens, UniProt O00182).
T4 construct: N and C respectively represent N-terminal side carbohydrate-recognition domain and C-terminal side carbohydrate-recognition domain; made in house
Conditions: for V − V0 Value: pyridyl-aminated carbohydrate, galectin-9C immobilized 3.0 mg/ml, less than 5 μl = below interaction detection limit; for binding to galectin-9C (in words): text statement on the FAC results. How it is done: as §1, §2, §3, §4, §5, §6

Another experiment addresses T5, Galectin-8N (Homo sapiens, UniProt O00214).
T5 construct: N and C respectively represent N-terminal side carbohydrate-recognition domain and C-terminal side carbohydrate-recognition domain; made in house
T5 sequence (O00214 19-152 limits assumed): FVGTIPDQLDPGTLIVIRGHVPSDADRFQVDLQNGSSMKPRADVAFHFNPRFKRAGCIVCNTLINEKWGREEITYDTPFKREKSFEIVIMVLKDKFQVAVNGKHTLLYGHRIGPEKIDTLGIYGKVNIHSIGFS
The conditions noted are these: for V − V0 Value: pyridyl-aminated carbohydrate, galectin-8N immobilized 3.6 mg/ml, less than 5 μl = below interaction detection limit. The procedure: as §1, §2, §3, §4, §5, §6

Another experiment has as its target T6, Galectin-8C (Homo sapiens, UniProt O00214).
T6 construct: N and C respectively represent N-terminal side carbohydrate-recognition domain and C-terminal side carbohydrate-recognition domain; made in house
T6 sequence (O00214 187-317 limits assumed): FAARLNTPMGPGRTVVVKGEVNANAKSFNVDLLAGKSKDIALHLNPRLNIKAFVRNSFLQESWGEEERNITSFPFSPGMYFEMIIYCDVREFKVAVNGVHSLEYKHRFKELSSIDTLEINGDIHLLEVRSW
The conditions noted are these: pyridyl-aminated carbohydrate; galectin-8C immobilized 4.0 mg/ml; less than 5 μl = below interaction detection limit. The procedure: as §1, §2, §3, §4, §5, §6

[1] abbreviates: text statement on the FAC results.

T4 sequence (O00182 227-355 limits assumed): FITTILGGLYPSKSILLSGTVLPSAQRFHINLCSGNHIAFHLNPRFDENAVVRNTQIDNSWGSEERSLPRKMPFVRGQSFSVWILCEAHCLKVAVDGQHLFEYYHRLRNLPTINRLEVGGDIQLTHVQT
T2 sequence (P09382 whole entry): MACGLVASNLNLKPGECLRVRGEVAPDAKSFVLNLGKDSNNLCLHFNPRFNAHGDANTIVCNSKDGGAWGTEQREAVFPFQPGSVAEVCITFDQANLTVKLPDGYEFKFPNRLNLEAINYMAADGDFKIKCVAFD
T3 sequence (O00182 17-148 limits assumed): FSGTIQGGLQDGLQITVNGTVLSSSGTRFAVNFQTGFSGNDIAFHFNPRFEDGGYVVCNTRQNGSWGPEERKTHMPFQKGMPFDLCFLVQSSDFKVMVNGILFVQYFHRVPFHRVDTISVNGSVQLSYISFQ
T1 sequence (P17931 whole entry): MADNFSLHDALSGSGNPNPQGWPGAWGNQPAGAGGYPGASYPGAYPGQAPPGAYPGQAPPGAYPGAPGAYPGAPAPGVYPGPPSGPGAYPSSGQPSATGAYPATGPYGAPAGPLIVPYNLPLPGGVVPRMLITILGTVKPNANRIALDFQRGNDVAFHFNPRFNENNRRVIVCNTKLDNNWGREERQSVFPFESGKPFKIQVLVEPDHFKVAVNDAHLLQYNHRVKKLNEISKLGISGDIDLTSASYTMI

Take `CC(=O)N[C@H]1[C@H](O[C@H]2[C@H](O)[C@@H](O)[C@H](O[C@H]3[C@@H](O)[C@@H](CO)OC(O)[C@@H]3NC(C)=O)O[C@@H]2C(=O)O)O[C@H](CO)[C@H](O)[C@@H]1O` (stereo partly drawn) [CH3, GalNAc β1-4 GlcA β1-3 GalNAc]: the “V − V0 Value” at Galectin-3 was less than 5.0 µL; on Galectin-1, less than 5.0 µL; on Galectin-9N it was 49.6 ± 8.2 µL.

On to `CC(=O)N[C@H]1[C@H](O[C@H]2[C@H](O)[C@@H](O)[C@H](O[C@H]3[C@@H](O)[C@@H](CO)O[C@@H](O[C@H]4[C@H](O)[C@@H](O)[C@H](O[C@H]5[C@@H](O)[C@@H](CO)OC(O)[C@@H]5NC(C)=O)O[C@@H]4C(=O)O)[C@@H]3NC(C)=O)O[C@@H]2C(=O)O)O[C@H](CO)[C@H](O)[C@@H]1O` (stereo partly drawn) [CH5, (GalNAc β1-4 GlcA β1-3)2 GalNAc], for which the “V − V0 Value” was less than 5.0 µL on Galectin-3, less than 5.0 µL at Galectin-1 and 45.6 ± 4.6 µL on Galectin-9N.

With `CC(=O)N[C@H]1[C@H](O[C@H]2[C@H](O)[C@@H](O)[C@H](O[C@H]3[C@@H](O)[C@@H](CO)O[C@@H](O[C@H]4[C@H](O)[C@@H](O)[C@H](O[C@H]5[C@@H](O)[C@@H](CO)O[C@@H](O[C@H]6[C@H](O)[C@@H](O)[C@H](O[C@H]7[C@@H](O)[C@@H](CO)OC(O)[C@@H]7NC(C)=O)O[C@@H]6C(=O)O)[C@@H]5NC(C)=O)O[C@@H]4C(=O)O)[C@@H]3NC(C)=O)O[C@@H]2C(=O)O)O[C@H](CO)[C@H](O)[C@@H]1O` (stereo partly drawn) [CH7, (GalNAc β1-4 GlcA β1-3)3 GalNAc], the “V − V0 Value” is less than 5.0 µL at Galectin-9C, 10.7 ± 1.9 µL on Galectin-3, less than 5.0 µL on Galectin-1 and 146.4 µL on Galectin-9N.

Consider `CC(=O)N[C@H]1[C@H](O[C@H]2[C@H](O)[C@@H](O)[C@H](O[C@H]3[C@@H](O)[C@@H](CO)O[C@@H](O[C@H]4[C@H](O)[C@@H](O)[C@H](O[C@H]5[C@@H](O)[C@@H](CO)O[C@@H](O[C@H]6[C@H](O)[C@@H](O)[C@H](O[C@H]7[C@@H](O)[C@@H](CO)OC(O)[C@@H]7NC(C)=O)O[C@@H]6C(=O)O)[C@@H]5NC(C)=O)O[C@@H]4C(=O)O)[C@@H]3NC(C)=O)O[C@@H]2C(=O)O)O[C@H](CO)[C@H](O)[C@@H]1O[C@@H]1O[C@H](C(=O)O)[C@@H](O)[C@H](O)[C@H]1O` (stereo partly drawn) [CH8, GlcA β1-3 (GalNAc β1-4 GlcA β1-3)3 GalNAc], for which the “V − V0 Value” on Galectin-9C is less than 5.0 µL; at Galectin-3, 7.8 ± 1.9 µL; on Galectin-1, less than 5.0 µL; at Galectin-9N, 116.2 µL.

As for `CC(=O)NC1C(OC2C(C(=O)O)OC(OC3C(O)C(CO)OC(OC4C(C(=O)O)OC(OC5C(O)C(CO)OC(OC6C(C(=O)O)OC(OC7C(O)C(CO)OC(OC8C(C(=O)O)OC(OC9C(O)C(CO)OC(O)C9NC(C)=O)C(O)C8O)C7NC(C)=O)C(O)C6O)C5NC(C)=O)C(O)C4O)C3NC(C)=O)C(O)C2O)OC(CO)C(O)C1O` (stereo not drawn) [CH9, (GalNAc β1-4 GlcA β1-3)4 GalNAc], the “V − V0 Value” is less than 5.0 µL at Galectin-9C, 15.6 ± 2.5 µL at Galectin-3, less than 5.0 µL at Galectin-1 and 199.4 µL on Galectin-9N.

On to `CC(=O)NC1C(OC2C(C(=O)O)OC(OC3C(O)C(CO)OC(OC4C(C(=O)O)OC(OC5C(O)C(CO)OC(OC6C(C(=O)O)OC(OC7C(O)C(CO)OC(OC8C(C(=O)O)OC(OC9C(O)C(CO)OC(OC%10C(C(=O)O)OC(OC%11C(O)C(CO)OC(O)C%11NC(C)=O)C(O)C%10O)C9NC(C)=O)C(O)C8O)C7NC(C)=O)C(O)C6O)C5NC(C)=O)C(O)C4O)C3NC(C)=O)C(O)C2O)OC(CO)C(O)C1O` (stereo not drawn) [CH11, (GalNAc β1-4 GlcA β1-3)5 GalNAc], for which the “V − V0 Value” on Galectin-3 stood at 21.4 ± 4.2 µL; at Galectin-9N, 218.8 µL.

As to `CC(=O)NC1C(O)OC(CO)C(O)C1OC1OC(C(=O)O)C(OC2OC(CO)C(O)C(OC3OC(C(=O)O)C(OC4OC(CO)C(O)C(OC5OC(C(=O)O)C(OC6OC(CO)C(O)C(OC7OC(C(=O)O)C(OC8OC(CO)C(O)C(OC9OC(C(=O)O)C(OC%10OC(CO)C(O)C(OC%11OC(C(=O)O)C(O)C(O)C%11O)C%10NC(C)=O)C(O)C9O)C8NC(C)=O)C(O)C7O)C6NC(C)=O)C(O)C5O)C4NC(C)=O)C(O)C3O)C2NC(C)=O)C(O)C1O` (stereo not drawn) [CH12, GlcA β1-3 (GalNAc β1-4 GlcA β1-3)5 GalNAc], the “V − V0 Value” stood at 16.8 ± 2.1 µL at Galectin-3 and 196.0 µL at Galectin-9N.

On to Chondroitin, for which the “V − V0 Value” was less than 5.0 µL at Galectin-9C; 19.2 ± 2.2 µL at Galectin-3; less than 5.0 µL at Galectin-1; less than 5.0 µL on Galectin-8N; 171.4 ± 19.0 µL at Galectin-9N; less than 5.0 µL at Galectin-8C. Further, the figures for the “binding to galectin-3 (in words)” value at Galectin-3 and at Galectin-3 (listed as chondroitin) were “bind” and “length-dependent binding affinity”, respectively. Besides, the results for the “binding to galectin-9N (in words)” value at Galectin-9N and at Galectin-9N (listed as chondroitin) were “bind” and “particularly strong binding affinity”, respectively.

Turning to cartilage type keratan sulfate [KS-II], the “V − V0 Value” at Galectin-9C is 6.4 ± 1.0 µL; on Galectin-3, 10.1 ± 1.1 µL; on Galectin-1, less than 5.0 µL; at Galectin-8N, less than 5.0 µL; on Galectin-9N it was 10.4 ± 0.3 µL; at Galectin-8C, less than 5.0 µL. Besides, the “binding to galectin-9C (in words)” value on Galectin-9C was “weaker than their binding with KS-I; also recorded: showed binding affinity”. For the same molecule, on Galectin-3, the “binding to galectin-3 (in words)” value is listed as “weaker than their binding with KS-I; also recorded: showed binding affinity”. Moreover, the “binding to galectin-9N (in words)” value on Galectin-9N was “weaker than their binding with KS-I; also recorded: showed binding affinity”.

cornea type keratan sulfate [KS-I]: the “V − V0 Value” at Galectin-9C is 12.2 ± 1.0 µL; on Galectin-3, 21.7 ± 4.3 µL; at Galectin-1, 10.3 ± 4.5 µL; on Galectin-8N it was less than 5.0 µL; on Galectin-9N, 105.3 ± 22.6 µL; at Galectin-8C, less than 5.0 µL. At Galectin-9C, the “binding to galectin-9C (in words)” value was “bound; also recorded: showed binding affinity”. Besides, on Galectin-3, the “binding to galectin-3 (in words)” value is recorded as “bound; also recorded: showed binding affinity”. Also, the “binding to galectin-1 (in words)” value at Galectin-1 (setting [1]) is recorded as “bound; also recorded: showed binding affinity”. In addition, at Galectin-8N (setting [1]), the “binding to galectin-8N (in words)” value was “showed binding affinity”. In addition, the “binding to galectin-9N (in words)” value on Galectin-9N is reported as “bound; also recorded: showed binding affinity”.
